From PubChem BioAssay (NCI)
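Following 48 hours of exposure in 96-well plates, responses at five concentrations were used to interpolate endpoints linearly. GI50 marks 50% less growth.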

System: SN12K1 renal
Assay: NCI anticancer screen, dose series, 48 h

Cc1c[nH]c2c1C13CC1CN(C(=O)c1cc4cc(NC(=O)c5cc6ccccc6o5)ccc4[nH]1)C3=CC2=O (stereo unspecified)
GI50: > 1.17 ng/mL
